This data set is described as follows: Acute toxicity, mouse, intraperitoneal. Type of data set: in vivo.

For the compound `COC1c2cc(O)cc(c2O)NC(=O)/C(C)=C/C=C\C(C)C(OC(N)=O)/C(C)=C/C(C)C(OC)C(O)CC1C` (centres unmarked) [E-5-R], the “acute toxicity as compared with Macbecin I and II (in words)” value (intraperitoneal, versus Macbecin I and II) was “lower toxicity as compared with Macbecin I and II”. Besides, the “acute toxicity (in words)” value (ip) is on record as “low toxicity”.
